Measurements published in ChEMBL document CHEMBL4219065, “Progress in the Development of Preventative Drugs for Cisplatin-Induced Hearing Loss” (J Med Chem, 2018).

Key:
[1] = Terminal half life in rat; settings: in vivo
[2] = test system: Homo sapiens; assay: Protection against cisplatin-induced ototoxicity in human assessed as reduction in hearing loss administered iv 35 mins prior to cisplatin treatment; assay type: functional; parameters: scale not given: the % may be the effect or the level left

half-life [1] | Structure (SMILES) | Activity [2]
34.2 min | [14CH3]SCC[C@@H](N)C(=O)O | 
 | NCCCNCCSP(=O)(O)O [AMIFOSTINE] | 43%
